Measurements: patent US11198695B2, “Fused ring derivative having MGAT-2 inhibitory activity” (Shionogi & Co., Ltd., priority 2017, dated 2021)
pIC50: −log10 of the molar value.

molecular target: recombinant human MGAT2 (Homo sapiens (Human), UniProt Q3SYC2); test: Measurement of human MGAT2 inhibitory activity; assay type: biochemical; details: read-out: IC50 (concentration exhibiting 50% enzyme inhibition), Table 52
Description: A full-length human MGAT2 gene to which a Flag-tag had been added at the N-terminal was inserted into pFastBac (from Invitrogen). A recombinant baculovirus was produced in accordance with the protocol for a Bac-to-Bac baculovirus expression system (produced by Invitrogen), and Sf-9 cells were infected therewith. The cells were collected and sonicated, and then the membrane fraction was collected through centrifugation. Western blotting analysis with an anti-Flag antibody was performed for the membrane fraction to confirm expression, and the membrane fraction was used as a recombinant human MGAT2 enzyme solution.
Solutions of the compounds of the present invention in DMSO were each aliquoted into 0.2-μL portions in a 384-well polystyrene microplate produced by Corning Incorporated, and 5 μL of an enzyme solution prepared with an assay buffer (100 mmol/L phosphate buffer (pH 7.4) containing 2 mmol/L DTT) and 5 μL of a substrate solution (100 mmol/L phosphate buffer (pH 7.4), 30 μmol/L 2-Oleoylglycerol, 10 μmol/L Oleoyl-CoA) were added thereto, and the resultant was stirred and centrifuged, and incubated in a moist chamber at room temperature for 1 hour. After enzymatic reaction, 50 μL of a quenching solution (containing 0.2 μmol/L Diolein-d5, 0.4% formic acid, and 50% isopropanol) containing Internal Standard (IS) was added to terminate the reaction, and the resultant was sealed in a plate produced by Shimadzu GLC Ltd., and then stirred and centrifuged, and measurement was performed by using an electrospray ionization method with a RapidFire360 and Agilent 6550 Q-TOF mass spectrometer. Diolein as a reaction product (P) of 2-Oleoylglycerol as the substrate and an ammonium adduct ion of the IS were detected, and the peak intensity ratio, P/IS, was calculated from the peak heights to evaluate the inhibitory activity. Inhibitory activities with/without addition of enzyme were defined as Control (+)/Control (−), respectively, and the respective % inhibitions were defined as 0% inhibition and 100% inhibition. The inhibitory activity was calculated from formula below with TIBCO Spotfire (produced by TIBCO Software Inc.): Inhibitory activity (%)=[1−{Sample−Control(−)}/{Control(+)−Control(−)}]*100 where Sample indicates a peak intensity ratio: P/IS, when the compound of the present invention was added.

Chain of recombinant human MGAT2 (Q3SYC2 whole entry): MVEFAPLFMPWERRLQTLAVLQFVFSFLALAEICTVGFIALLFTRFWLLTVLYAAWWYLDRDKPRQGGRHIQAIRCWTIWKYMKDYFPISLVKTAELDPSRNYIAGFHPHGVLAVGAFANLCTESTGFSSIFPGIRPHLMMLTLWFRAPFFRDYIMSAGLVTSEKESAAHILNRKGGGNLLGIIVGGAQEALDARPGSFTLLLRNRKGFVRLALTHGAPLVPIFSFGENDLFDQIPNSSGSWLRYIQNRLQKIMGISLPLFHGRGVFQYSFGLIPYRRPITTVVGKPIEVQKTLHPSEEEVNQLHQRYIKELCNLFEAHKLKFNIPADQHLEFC

Structure (SMILES) | pIC50
O=C(COC(F)(F)F)Nc1c2c(nn1CCC1CC1)C[C@]1(CCc3cc(OCCCC(F)(F)F)ccc31)NC2=O [Compound I-32] | 7.77
CS(=O)(=O)CC(=O)Nc1c2c(nn1-c1cccc(OC(F)(F)F)c1)C[C@]1(CCc3cc(OCC(F)(F)F)ccc31)NC2=O [Compound I-126] | 6.15
CS(=O)(=O)CC(=O)Nc1c2c(nn1CCC1CC1)C[C@@]1(CCc3cc(N4CC(C(F)(F)F)C4)ccc31)NC2=O [Compound I-166] | 8.15
O=C1N[C@@]2(CCc3cc(OCC(F)(F)F)ccc32)Cc2nn(CCC3CC3)c(C(=O)NS(=O)(=O)C3CC3)c21 [Compound I-181] | 7.82
Cc1ccc(-n2nc(NC(=O)CS(C)(=O)=O)c3c2C[C@]2(CCc4cc(OCCCC(F)(F)F)ccc42)NC3=O)cc1 [Compound I-48] | 6.71
CS(=O)(=O)CCNC(=O)c1c2c(nn1CCC1CC1)C[C@]1(CCc3cc(OCC(F)(F)F)ccc31)NC2=O [Compound I-87] | 6.36
CS(=O)(=O)CC(=O)Nc1nn(CC2CCC(C(F)(F)F)CC2)c2c1C(=O)N[C@@]1(CCc3cc(OCCCC(F)(F)F)ccc31)C2 (stereo partly shown) [Compound I-73] | 6.54
CS(=O)(=O)CC(=O)Nc1c2c(nn1CC1CCCO1)C[C@]1(CCc3cc(OCC(F)(F)F)ccc31)NC2=O (stereo partly shown) [Compound I-257] | 7.10
CS(=O)(=O)CC(=O)Nc1c2c(nn1CCC1CC1)C[C@]1(CCc3cc(C4CC4)ccc31)NC2=O [Compound I-3] | 8.04
O=C(Nc1c2c(nn1CCC1CC1)C[C@]1(CCc3cc(OCC(F)(F)F)ccc31)NC2=O)c1cnccn1 [Compound I-217] | 7.05
CS(=O)(=O)CC(=O)Nc1c2c(nn1-c1ccc(F)cn1)C[C@]1(CCc3cc(OCC(F)(F)F)ccc31)NC2=O [Compound I-203] | 8.59
CC(C)(O)C(=O)NCc1c2c(nn1CCC1CC1)C[C@]1(CCc3cc(OCC(F)(F)F)ccc31)NC2=O [Compound I-155] | 6.74

Continued, values first:

pIC50 | Structure (SMILES)
7.27 | CS(=O)(=O)CC(=O)Nc1c2c(nn1C1CCCCC1)C[C@]1(CCc3cc(OCC(F)(F)F)ccc31)NC2=O [Compound I-96]
7.27 | CS(=O)(=O)CC(=O)Nc1c2c(nn1CCC1CC1)C[C@](c1ccc(OCC(F)(F)F)cc1)(C(F)(F)F)NC2=O [Compound I-70]
8.68 | CS(=O)(=O)CC(=O)Nc1c2c(nn1-c1ccc(F)cn1)C[C@@]1(CCc3cc(OCC(F)(F)F)ccc31)NC2=O [Compound I-211]
6.92 | CS(=O)(=O)CC(=O)Nc1c2c(nn1CCC1CCOCC1)C[C@]1(CCc3cc(OCC(F)(F)F)ccc31)NC2=O [Compound I-258]
6.82 | CCOCCn1nc2c(c1NC(=O)CS(C)(=O)=O)C(=O)N[C@@]1(CCc3cc(OCC(F)(F)F)ccc31)C2 [Compound I-250]
8.49 | CS(=O)(=O)CC(=O)Nc1c2c(nn1Cc1nc(C(F)(F)F)cs1)C[C@]1(CCc3cc(OCCCC(F)(F)F)ccc31)NC2=O [Compound I-209]
6.55 | COc1ccccc1C(=O)Nc1c2c(nn1CCC1CC1)C[C@]1(CCc3cc(OCCCC(F)(F)F)ccc31)NC2=O [Compound I-15]
8.17 | CS(=O)(=O)CC(=O)Nc1c2c(nn1CCC1CC1)C[C@]1(CCc3cc(CCC(F)(F)F)ccc31)NC2=O [Compound I-35]
8.07 | Cc1cccc(-n2nc3c(c2NC(=O)CS(C)(=O)=O)C(=O)N[C@@]2(CCc4cc(OCC(F)(F)F)ccc42)C3)c1 [Compound I-98]
7.83 | CS(=O)(=O)CC(=O)Nc1c2c(nn1-c1ccc(OC(F)(F)F)cc1)C[C@]1(CCc3cc(OCCCC(F)(F)F)ccc31)NC2=O [Compound I-33]
6.80 | CS(=O)(=O)CC(=O)Nc1c2c(nn1CCC1CC1)C[C@]1(CCc3cc(C#N)ccc31)NC2=O [Compound I-93]
8.34 | Cc1ccc(-n2nc3c(c2NC(=O)CS(C)(=O)=O)C(=O)N[C@]2(CCc4cc(OCC(F)(F)F)ccc42)C3)cc1 [Compound I-266]
7.40 | O=C(Nc1c2c(nn1CCC1CC1)C[C@]1(CCc3cc(OCC(F)(F)F)ccc31)NC2=O)c1ncco1 [Compound I-225]
8.26 | COCCCn1nc2c(c1NC(=O)CS(C)(=O)=O)C(=O)N[C@@]1(CCc3cc(OCCCC(F)(F)F)ccc31)C2 [Compound I-58]
6.57 | Cn1ccc(C(=O)Nc2c3c(nn2CCC2CC2)C[C@]2(CCc4cc(OCC(F)(F)F)ccc42)NC3=O)n1 [Compound I-232]
6.96 | COc1cccc(-n2nc3c(c2NC(=O)CS(C)(=O)=O)C(=O)N[C@@]2(CCc4cc(OCC(F)(F)F)ccc42)C3)c1 [Compound I-244]
7.43 | O=C(Nc1c2c(nn1CCC1CC1)C[C@]1(CCc3cc(OCC(F)(F)F)ccc31)NC2=O)c1cccnc1 [Compound I-78]
7.42 | O=C1N[C@@]2(CCc3cc(OCC(F)(F)F)ccc32)Cc2nn(CCC3CC3)c(CNC(=O)C3(C(F)(F)F)CC3)c21 [Compound I-157]
6.29 | O=C1N[C@@]2(CCc3cc(OCC(F)(F)F)ccc32)Cc2nn(CCC3CC3)c(CNS(=O)(=O)C3CCC3)c21 [Compound I-143]

same assay, conditions: read-out: IC50 (concentration exhibiting 50% enzyme inhibition), Table 53

Structure (SMILES) | pIC50
COCCCn1nc2c(c1NC(=O)CS(C)(=O)=O)C(=O)N[C@]1(CCc3cc(OCC(F)(F)F)ccc31)C2 [II-21] | 7.77
CS(=O)(=O)CC(=O)Nc1c2c(nn1CCC1CC1)C[C@@]1(CCc3cc(N4CC(F)C4)ccc31)NC2=O [II-34] | 7.39
CS(=O)(=O)CC(=O)Nc1c2c(nn1-c1ccc(C#N)cn1)C[C@]1(CCc3cc(C4CC4)ccc31)NC2=O [II-172] | 8.84
Cc1ccc(-n2nc3c(c2C(=O)NCC(N)=O)C(=O)N[C@@](c2ccc(OCC(F)(F)F)cc2F)(C(F)(F)F)C3)nc1 [II-241] | 7.61
CS(=O)(=O)CC(=O)Nc1c2c(nn1-c1ccc(C3CC3)cn1)C[C@]1(CCOc3cc(OCC(F)(F)F)ccc31)NC2=O [II-296] | > 9.00
CCOC1CN(c2ccc3c(c2)CC[C@@]32Cc3nn(CCC4CC4)c(NC(=O)CS(C)(=O)=O)c3C(=O)N2)C1 [II-42] | 7.34
COCCNC(=O)c1c2c(nn1-c1ccc(C#N)cn1)C[C@]1(CCc3cc(OCC(F)(F)F)ccc31)NC2=O [II-125] | 7.20
N#Cc1ccc(-n2nc3c(c2C(=O)NS(=O)(=O)CCC(F)(F)F)C(=O)N[C@@]2(CCc4cc(OCC(F)(F)F)ccc42)C3)nc1 [II-217] | 7.16
Cc1cccc(-n2nc3c(c2NC(=O)CS(C)(=O)=O)C(=O)N[C@@]2(CCOc4cc(OCC(F)(F)F)ccc42)C3)c1 [II-5] | 8.34
COCCS(=O)(=O)NC(=O)c1c2c(nn1-c1ccc(C)cn1)C[C@]1(CCc3cc(OCC(F)(F)F)ccc31)NC2=O [II-211] | 7.48

The remaining lines, values ahead:

pIC50 | Structure (SMILES)
8.05 | C[C@@]1(c2ccc(OCC(F)(F)F)cc2F)Cc2nn(-c3ccc(F)c(F)c3)c(NC(=O)CS(C)(=O)=O)c2C(=O)N1 [II-96]
> 9.00 | CS(=O)(=O)CC(=O)Nc1c2c(nn1CCCOC(F)(F)F)C[C@@]1(CCc3cc(CCC(F)(F)F)ccc31)NC2=O [II-284]
6.73 | N#Cc1ccc(-n2nc3c(c2C(=O)N[C@H]2CC[C@@H](O)C2)C(=O)N[C@@]2(CCc4cc(OCC(F)(F)F)ccc42)C3)nc1 [II-133]
8.18 | Cc1ccc(-n2nc3c(c2C(=O)NS(=O)(=O)C2CC2)C(=O)N[C@@](c2ccc(OCC(F)(F)F)cc2F)(C(F)(F)F)C3)nc1 [II-274]
6.66 | CS(=O)(=O)CC(=O)Nc1c2c(nn1-c1ccc(C#N)cn1)CC1(CN(C(=O)c3ccc(C(F)(F)F)cc3)C1)NC2=O [II-29]
8.37 | C[C@@]1(c2ccc(OCC(F)(F)F)cc2F)Cc2nn(-c3ccc(C#N)cn3)c(NC(=O)CS(C)(=O)=O)c2C(=O)N1 [II-95]
6.70 | CS(=O)(=O)CC(=O)Nc1c2c(nn1CCC1CC1)C[C@@]1(CCc3cc(N4CC5(COC5)C4)ccc31)NC2=O [II-50]
8.39 | CC(F)(F)CNC(=O)c1c2c(nn1-c1ccc(C#N)cn1)C[C@]1(CCc3cc(OCC(F)(F)F)ccc31)NC2=O [II-184]
7.57 | CS(=O)(=O)CC(=O)Nc1c2c(nn1CCc1ccccc1F)C[C@]1(CCc3cc(OCC(F)(F)F)ccc31)NC2=O [II-13]
7.02 | Cc1ccc(-n2nc3c(c2C(=O)NCC(F)(F)F)C(=O)N[C@@]2(CCOc4cc(OCC(F)(F)F)ccc42)C3)nc1 [II-227]
> 9.00 | CS(=O)(=O)CC(=O)Nc1c2c(nn1CCCOC(F)F)C[C@]1(CCc3cc(OCC4CC(F)(F)C4)ccc31)NC2=O [II-290]
8.02 | Cc1ccc(-n2nc3c(c2C(=O)NCCS(N)(=O)=O)C(=O)N[C@@]2(CCc4cc(OCC(F)(F)F)ccc42)C3)nc1 [II-171]
> 9.00 | CS(=O)(=O)CC(=O)Nc1c2c(nn1CCCOC(F)F)C[C@@]1(CCc3cc(OCC4CC(F)(F)C4)ccc31)NC2=O [II-291]
7.76 | N#Cc1ccc(-n2nc3c(c2C(=O)NCCS(N)(=O)=O)C(=O)N[C@@]2(CCc4cc(OCC(F)(F)F)ccc42)C3)nc1 [II-134]
